Values quoted from earlier work, collected in patent US12017989B2, “Controlled release pharmaceutical formulations” (United Therapeutics Corporation, priority 2013, dated 2024).

Conditions: continuous subcutaneous infusion using a pump; Wade et al., J Clin Pharmacol 2004

peak-to-trough variation of concentration profile: 20-30%
Compound: CCCCC[C@H](O)CC[C@@H]1[C@H]2Cc3cccc(OCC(=O)O)c3C[C@H]2C[C@H]1O [treprostinil]
